From patent US8314150B2, “Kinase protein binding inhibitors” (priority 2008, dated 2012)

Tests used:
FAK = target: T1, FAK (Homo sapiens, UniProt Q05397); experiment: In vitro kinase assay with purified recombinant FAK; assay type: biochemical; details: doses 1-100 μM tested
T1 construct: made in house; host or cells: Baculovirus system
Experimental: (§1) Cell Viability Assay—The Cells were treated with peptides for 24 hours at different peptide concentrations. The 3-(4,5-dimethylthiazol-2-yl)-5-(3-carboxymethoxyphenyl)-2-(4-sulfophenyl)-2H-tetrazolium compound from Promega Viability kit (Madison, Ill.) was added, and the cells were incubated at 37° C. for 1-2 hours. The optical density on 96-plate was analyzed with a microplate reader at 490 nm to determine cell viability. In addition, cells were stained with trypan blue after 24 hours of treatment with Y15 and the percent of cells that stained positive were determined with a hemacytometer. […] Then 2% SDS was added to the dried plated and OD at 590 nm was measured for detecting cell adhesion. […] Protein concentrations were determined using a Bio-Rad Kit. The boiled samples were loaded on Ready SDS-10% PAGE gels (Bio Rad, Inc) and used for Western blot analysis with the protein-specific antibody. […] Detachment Assay—Cells were plated with and without inhibitors for 24 hours, and detached and attached cells were counted in a hemocytometer. We calculated the percent of detachment by dividing the number of detached cells by the total number of cells. The percent of detached cells was calculated in three independent experiments. […] For each experiment 300 cells per treatment were counted. […]

FAK-Y397 phosphorylation = experiment: FAK-Y397 levels in Panc-1 tumors by Western blotting; assay type: in vivo, mice; details: 30 mg/kg, day 36, vs PBS
Experimental: as §1

pancreatic tumor cells = experiment: Cell adhesion assay on collagen-coated plates, pancreatic tumor cells; assay type: cell-based, human
Experimental: as §1

[1] = test system: Y397 phosphorylation of FAK; experiment: Western blotting with Y397 antibody, time course in pancreatic tumor cells; assay type: cell-based, human; details: 100 μM
Experimental: as §1

[2] = test system: Panc-1 and Miapaca-2 cells; experiment: Trypan blue staining, pancreatic cancer cells; assay type: cell-based, human; details: increasing doses, 24 hours
Experimental: as §1

BT474 cells = experiment: Cell adhesion assay on collagen-coated plates, BT474; assay type: cell-based
Experimental: as §1

c-Src phosphorylation = experiment: Phosphorylation of c-Src in cells; assay type: cell-based; details: not shown
Experimental: as §1

EGFR = target: T2, EGFR (Homo sapiens, UniProt P00533); experiment: KinaseProfiler screening; assay type: biochemical; details: 1 μM, 10 μM ATP
T2 construct: purchased Millipore KinaseProfiler Service (Upstate Biotechnology, Inc)
Experimental: (§2) Cell Viability Assay—The Cells were treated with peptides for 24 hours at different peptide concentrations. The 3-(4,5-dimethylthiazol-2-yl)-5-(3-carboxymethoxyphenyl)-2-(4-sulfophenyl)-2H-tetrazolium compound from Promega Viability kit (Madison, Ill.) was added, and the cells were incubated at 37° C. for 1-2 hours. The optical density on 96-plate was analyzed with a microplate reader at 490 nm to determine cell viability. In addition, cells were stained with trypan blue after 24 hours of treatment with Y15 and the percent of cells that stained positive were determined with a hemacytometer. Cell adhesion assay—The poly-L-Lysine or Collagen (5 μg/ml) coated 96-well plates were blocked with the blocking buffer (medium with 0.5% BSA) for 1 hour at 37 C. The cells were pre-treated with drugs for 3 hours and plated for adhesion at 4×10^5 cells. Cells were incubated at 37 C for 1 hour, fixed in 3.7% formaldehyde, washed in 0.1% BSA in PBS and stained with crystal violet (5 mg/ml in 2% ethanol) for 10 minutes. Then 2% SDS was added to the dried plated and OD at 590 nm was measured for detecting cell adhesion. Western Blotting—Cells or homogenized tumor samples were washed twice with cold 1×PBS and lysed on ice for 30 minutes in a buffer containing: 50 mM Tris-HCl (pH 7.5), 150 mM NaCl, 1% Triton-X, 0.5% NaDOC, 0.1% SDS, 5 mM EDTA, 50 mM NaF, 1 mM NaVO3, 10% glycerol and protease inhibitors: 10 μg/ml leupeptin, 10 μg/ml PMSF and 1 μg/ml aprotinin. The lysates were cleared by centrifugation at 10,000 rpm for 30 minutes at 4° C. Protein concentrations were determined using a Bio-Rad Kit. The boiled samples were loaded on Ready SDS-10% PAGE gels (Bio Rad, Inc) and used for Western blot analysis with the protein-specific antibody. Immunoblots were developed with chemiluminescence Renaissance reagent (NEN Life Science Products, Inc). Immunoprecipitation. Immunoprecipitation was performed according to the standard protocol. In brief, the pre-cleared lysates with equal amount of protein were incubated with 1 μg of primary antibody and 30 μl A/G agarose beads overnight at 4° C. The precipitates were washed with lysis buffer three times and re-suspended in 2× Laemmli buffer. The boiled samples were used for Western blotting, as described above. Detachment Assay—Cells were plated with and without inhibitors for 24 hours, and detached and attached cells were counted in a hemocytometer. We calculated the percent of detachment by dividing the number of detached cells by the total number of cells. The percent of detached cells was calculated in three independent experiments. Apoptosis Assay. Detached cells were collected and fixed in 3.7% formaldehyde in 1×PBS solution for the apoptosis assay. Detection of apoptosis was done with Hoechst 33342 staining. The percent of apoptotic cells was calculated as a ratio of apoptotic detached cells divided by the total number of cells in three independent experiments in several fields with the fluorescent microscope. For each experiment 300 cells per treatment were counted. In vitro Kinase Assay—10 μCi of [γ-^32P]-ATP in a kinase buffer (20 mM HEPES, pH 7.4, 5 mM MgCl2, 5 mM MnCl2, 0.1 mM Na3VO4 with 0.1 μg of purified FAK protein were incubated in a kinase buffer with 10 μCi of [γ-^32P]-ATP. The kinase reaction was performed for 5 minutes at room temperature and stopped by addition of 2× Laemmli buffer. Proteins were separated on a Ready SDS-10% PAGE gel, and the phosphorylated enolase was visualized by autoradiography. KinaseProfiler screening—Kinase specificity screening was performed with KinaseProfiler™ Service (Millipore) available on http://www.millipore.com/drugdiscovery/dd3/KinaseProfiler. The screening was performed with 1 μM Y15, 10 μM ATP and kinase substrates on 9 recombinant kinases according to Millipore protocol. Tumor Growth in Nude Mice—Female nude mice, 6 weeks old, were purchased from Harlan Laboratory. […]

Met = target: T3, Met (Homo sapiens, UniProt P08581); experiment: KinaseProfiler screening; assay type: biochemical; details: 1 μM, 10 μM ATP
T3 construct: purchased Millipore KinaseProfiler Service (Upstate Biotechnology, Inc)
Experimental: as §2

IGF-1 = target: T4, IGF-1 (Homo sapiens, UniProt P08069); experiment: KinaseProfiler screening; assay type: biochemical; details: 1 μM, 10 μM ATP
T4 construct: purchased Millipore KinaseProfiler Service (Upstate Biotechnology, Inc)
Experimental: as §2

c-RAF = target: T5, c-RAF (Homo sapiens, UniProt P04049); experiment: KinaseProfiler screening; assay type: biochemical; details: 1 μM, 10 μM ATP
T5 construct: purchased Millipore KinaseProfiler Service (Upstate Biotechnology, Inc)
Experimental: as §2

PI3K (p110δ/p85α) = target: T6, PI3K (p110δ/p85α) (Homo sapiens, UniProt O00329); experiment: KinaseProfiler screening; assay type: biochemical; details: 1 μM, 10 μM ATP
T6 construct: purchased Millipore KinaseProfiler Service (Upstate Biotechnology, Inc)
Experimental: as §2

VEGFR-3 = target: T7, VEGFR-3 (Homo sapiens, UniProt P35916); experiment: KinaseProfiler screening; assay type: biochemical; details: 1 μM, 10 μM ATP
T7 construct: purchased Millipore KinaseProfiler Service (Upstate Biotechnology, Inc)
Experimental: as §2

c-Src = target: T8, c-Src (Homo sapiens, UniProt P12931); experiment: KinaseProfiler screening; assay type: biochemical; details: 1 μM, 10 μM ATP
T8 construct: purchased Millipore KinaseProfiler Service (Upstate Biotechnology, Inc)
Experimental: as §2

Pyk2 = target: T9, Pyk2 (Homo sapiens, UniProt Q14289); experiment: KinaseProfiler screening; assay type: biochemical; details: 1 μM, 10 μM ATP
T9 construct: purchased Millipore KinaseProfiler Service (Upstate Biotechnology, Inc)
Experimental: as §2

PDGFR-α = target: T10, PDGFR-α (Homo sapiens, UniProt P16234); experiment: KinaseProfiler screening; assay type: biochemical; details: 1 μM, 10 μM ATP
T10 construct: purchased Millipore KinaseProfiler Service (Upstate Biotechnology, Inc)
Experimental: as §2

[3] = test system: Y397 phosphorylation of FAK; experiment: Western blotting with Y397 FAK antibody, Panc-1 cells; assay type: cell-based, human; details: 24 hours
Experimental: Cell Viability Assay—The Cells were treated with peptides for 24 hours at different peptide concentrations. The 3-(4,5-dimethylthiazol-2-yl)-5-(3-carboxymethoxyphenyl)-2-(4-sulfophenyl)-2H-tetrazolium compound from Promega Viability kit (Madison, Ill.) was added, and the cells were incubated at 37° C. for 1-2 hours. The optical density on 96-plate was analyzed with a microplate reader at 490 nm to determine cell viability. In addition, cells were stained with trypan blue after 24 hours of treatment with Y15 and the percent of cells that stained positive were determined with a hemacytometer. Cell adhesion assay—The poly-L-Lysine or Collagen (5 μg/ml) coated 96-well plates were blocked with the blocking buffer (medium with 0.5% BSA) for 1 hour at 37 C. The cells were pre-treated with drugs for 3 hours and plated for adhesion at 4×10^5 cells. Cells were incubated at 37 C for 1 hour, fixed in 3.7% formaldehyde, washed in 0.1% BSA in PBS and stained with crystal violet (5 mg/ml in 2% ethanol) for 10 minutes. Then 2% SDS was added to the dried plated and OD at 590 nm was measured for detecting cell adhesion. […] Protein concentrations were determined using a Bio-Rad Kit. The boiled samples were loaded on Ready SDS-10% PAGE gels (Bio Rad, Inc) and used for Western blot analysis with the protein-specific antibody. […] Detachment Assay—Cells were plated with and without inhibitors for 24 hours, and detached and attached cells were counted in a hemocytometer. We calculated the percent of detachment by dividing the number of detached cells by the total number of cells. The percent of detached cells was calculated in three independent experiments. […] The percent of apoptotic cells was calculated as a ratio of apoptotic detached cells divided by the total number of cells in three independent experiments in several fields with the fluorescent microscope. For each experiment 300 cells per treatment were counted. […]

[4] = test system: BT474, T47D, MCF-7 breast cancer, HT29 colon cancer, C8161 melanoma, A549 lung cancer cell lines; experiment: MTT cell viability screen of 36 compounds in 6 cancer cell lines; assay type: cell-based; details: 100 μM, 24 hours, among 36 compounds
Experimental: as §1

T2 sequence (P00533 25-1210): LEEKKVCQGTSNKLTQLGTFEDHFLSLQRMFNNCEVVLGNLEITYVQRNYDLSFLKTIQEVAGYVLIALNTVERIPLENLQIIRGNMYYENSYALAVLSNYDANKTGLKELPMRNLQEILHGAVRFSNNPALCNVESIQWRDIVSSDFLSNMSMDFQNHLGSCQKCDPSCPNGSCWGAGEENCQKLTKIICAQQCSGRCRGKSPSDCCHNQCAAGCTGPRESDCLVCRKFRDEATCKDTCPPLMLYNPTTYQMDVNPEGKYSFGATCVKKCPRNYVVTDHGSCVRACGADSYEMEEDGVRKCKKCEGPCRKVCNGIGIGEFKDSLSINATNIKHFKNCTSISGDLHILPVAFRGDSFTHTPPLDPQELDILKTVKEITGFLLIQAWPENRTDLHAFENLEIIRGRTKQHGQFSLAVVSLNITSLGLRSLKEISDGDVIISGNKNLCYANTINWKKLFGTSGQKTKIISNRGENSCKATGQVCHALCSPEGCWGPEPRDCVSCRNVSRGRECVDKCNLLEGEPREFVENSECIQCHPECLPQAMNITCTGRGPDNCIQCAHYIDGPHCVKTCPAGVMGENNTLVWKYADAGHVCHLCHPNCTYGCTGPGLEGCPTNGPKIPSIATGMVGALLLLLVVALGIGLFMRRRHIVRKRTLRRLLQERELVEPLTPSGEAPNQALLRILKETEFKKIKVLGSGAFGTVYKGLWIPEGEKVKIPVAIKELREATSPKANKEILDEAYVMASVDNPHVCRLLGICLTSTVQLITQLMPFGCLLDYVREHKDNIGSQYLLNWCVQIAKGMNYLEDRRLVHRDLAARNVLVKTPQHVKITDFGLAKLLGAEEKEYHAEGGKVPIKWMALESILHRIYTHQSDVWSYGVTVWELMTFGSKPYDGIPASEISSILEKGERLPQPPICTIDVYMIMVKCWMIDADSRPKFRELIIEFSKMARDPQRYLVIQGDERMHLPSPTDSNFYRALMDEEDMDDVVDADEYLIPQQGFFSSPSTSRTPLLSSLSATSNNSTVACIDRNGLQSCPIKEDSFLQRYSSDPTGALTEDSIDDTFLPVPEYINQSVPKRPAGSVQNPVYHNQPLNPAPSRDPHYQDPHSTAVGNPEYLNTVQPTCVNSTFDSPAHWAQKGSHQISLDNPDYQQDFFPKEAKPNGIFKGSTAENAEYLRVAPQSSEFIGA
T5 sequence (P04049 whole entry): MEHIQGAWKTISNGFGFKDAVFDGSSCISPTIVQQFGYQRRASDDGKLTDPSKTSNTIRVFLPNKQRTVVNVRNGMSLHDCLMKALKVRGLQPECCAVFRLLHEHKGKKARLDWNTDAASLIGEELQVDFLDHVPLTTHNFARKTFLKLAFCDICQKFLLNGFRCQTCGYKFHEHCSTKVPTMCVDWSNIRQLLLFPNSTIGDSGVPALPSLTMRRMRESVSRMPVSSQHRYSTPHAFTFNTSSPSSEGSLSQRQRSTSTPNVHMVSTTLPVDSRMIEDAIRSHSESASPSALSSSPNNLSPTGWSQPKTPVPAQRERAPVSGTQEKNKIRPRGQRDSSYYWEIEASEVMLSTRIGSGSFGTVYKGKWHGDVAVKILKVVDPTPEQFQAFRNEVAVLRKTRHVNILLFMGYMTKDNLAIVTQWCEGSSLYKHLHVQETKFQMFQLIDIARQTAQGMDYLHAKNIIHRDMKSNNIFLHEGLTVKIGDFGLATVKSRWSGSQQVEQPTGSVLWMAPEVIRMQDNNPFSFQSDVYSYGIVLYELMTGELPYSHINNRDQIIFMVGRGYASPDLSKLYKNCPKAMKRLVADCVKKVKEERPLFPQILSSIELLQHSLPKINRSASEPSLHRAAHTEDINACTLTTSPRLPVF
T4 sequence (P08069 31-1367): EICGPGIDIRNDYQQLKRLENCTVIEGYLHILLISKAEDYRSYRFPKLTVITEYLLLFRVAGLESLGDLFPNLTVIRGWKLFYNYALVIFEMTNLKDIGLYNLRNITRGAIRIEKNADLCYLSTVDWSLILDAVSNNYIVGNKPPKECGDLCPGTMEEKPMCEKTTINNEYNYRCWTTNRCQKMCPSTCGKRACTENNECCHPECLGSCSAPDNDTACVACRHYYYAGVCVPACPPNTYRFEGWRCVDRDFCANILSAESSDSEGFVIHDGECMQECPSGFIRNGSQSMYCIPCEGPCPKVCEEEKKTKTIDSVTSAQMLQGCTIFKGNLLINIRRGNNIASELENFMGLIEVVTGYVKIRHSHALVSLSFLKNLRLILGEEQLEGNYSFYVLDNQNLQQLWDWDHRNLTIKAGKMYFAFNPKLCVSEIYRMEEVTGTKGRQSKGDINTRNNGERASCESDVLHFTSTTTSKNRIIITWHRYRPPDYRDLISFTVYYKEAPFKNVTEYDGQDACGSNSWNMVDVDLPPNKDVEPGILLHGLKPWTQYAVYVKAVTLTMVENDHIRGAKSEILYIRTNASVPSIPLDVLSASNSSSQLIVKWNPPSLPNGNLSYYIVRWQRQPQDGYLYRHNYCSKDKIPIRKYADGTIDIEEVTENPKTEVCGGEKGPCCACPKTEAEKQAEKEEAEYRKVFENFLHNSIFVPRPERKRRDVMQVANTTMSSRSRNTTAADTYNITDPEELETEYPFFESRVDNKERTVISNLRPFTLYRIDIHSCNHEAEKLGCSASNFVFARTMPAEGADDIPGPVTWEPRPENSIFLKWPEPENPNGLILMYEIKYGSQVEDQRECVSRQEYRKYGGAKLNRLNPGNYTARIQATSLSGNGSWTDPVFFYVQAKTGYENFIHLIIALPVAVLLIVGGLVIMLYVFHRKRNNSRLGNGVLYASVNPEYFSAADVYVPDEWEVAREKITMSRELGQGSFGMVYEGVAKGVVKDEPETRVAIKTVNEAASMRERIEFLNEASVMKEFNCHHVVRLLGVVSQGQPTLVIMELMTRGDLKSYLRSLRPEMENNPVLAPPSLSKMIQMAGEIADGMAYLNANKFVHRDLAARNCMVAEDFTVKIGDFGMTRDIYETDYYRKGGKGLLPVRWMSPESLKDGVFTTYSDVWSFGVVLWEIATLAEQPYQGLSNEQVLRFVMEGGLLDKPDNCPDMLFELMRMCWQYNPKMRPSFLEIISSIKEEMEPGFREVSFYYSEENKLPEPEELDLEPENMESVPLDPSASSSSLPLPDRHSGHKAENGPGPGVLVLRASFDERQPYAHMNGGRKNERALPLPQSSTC
T3 sequence (P08581 25-1390): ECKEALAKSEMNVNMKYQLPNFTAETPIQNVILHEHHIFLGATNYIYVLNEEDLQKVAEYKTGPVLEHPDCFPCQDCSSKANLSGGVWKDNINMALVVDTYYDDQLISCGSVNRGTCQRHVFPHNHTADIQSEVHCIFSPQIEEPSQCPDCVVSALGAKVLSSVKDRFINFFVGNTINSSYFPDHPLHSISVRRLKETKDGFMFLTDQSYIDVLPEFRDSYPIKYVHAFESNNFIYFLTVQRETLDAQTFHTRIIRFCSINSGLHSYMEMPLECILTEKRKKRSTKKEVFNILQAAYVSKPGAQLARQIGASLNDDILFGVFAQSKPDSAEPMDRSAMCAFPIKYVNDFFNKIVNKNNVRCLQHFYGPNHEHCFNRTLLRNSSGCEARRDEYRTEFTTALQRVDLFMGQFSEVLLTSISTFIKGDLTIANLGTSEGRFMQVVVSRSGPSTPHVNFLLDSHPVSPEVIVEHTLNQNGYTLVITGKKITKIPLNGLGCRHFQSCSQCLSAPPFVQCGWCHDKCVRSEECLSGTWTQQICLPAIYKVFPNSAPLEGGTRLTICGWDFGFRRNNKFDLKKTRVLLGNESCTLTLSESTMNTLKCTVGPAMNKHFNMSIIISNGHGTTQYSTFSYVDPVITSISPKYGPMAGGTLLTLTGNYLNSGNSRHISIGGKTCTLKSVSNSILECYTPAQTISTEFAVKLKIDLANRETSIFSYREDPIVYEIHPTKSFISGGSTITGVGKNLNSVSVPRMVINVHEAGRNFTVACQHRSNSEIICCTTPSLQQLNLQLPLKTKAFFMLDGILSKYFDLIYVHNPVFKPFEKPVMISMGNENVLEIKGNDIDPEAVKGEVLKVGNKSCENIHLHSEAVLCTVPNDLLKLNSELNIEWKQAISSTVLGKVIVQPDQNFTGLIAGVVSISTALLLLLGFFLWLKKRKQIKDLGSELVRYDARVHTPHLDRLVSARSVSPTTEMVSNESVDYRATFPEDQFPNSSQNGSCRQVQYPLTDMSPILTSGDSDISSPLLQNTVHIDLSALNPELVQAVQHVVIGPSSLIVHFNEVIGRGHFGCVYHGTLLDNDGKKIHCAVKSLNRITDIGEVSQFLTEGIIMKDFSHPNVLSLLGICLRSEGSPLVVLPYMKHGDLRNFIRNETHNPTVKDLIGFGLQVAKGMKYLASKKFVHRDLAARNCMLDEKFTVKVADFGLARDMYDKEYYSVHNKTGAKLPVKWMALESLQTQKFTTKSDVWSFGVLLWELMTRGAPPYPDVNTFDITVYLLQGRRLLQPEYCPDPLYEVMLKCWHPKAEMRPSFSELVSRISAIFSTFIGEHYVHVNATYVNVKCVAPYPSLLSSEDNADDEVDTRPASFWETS
T8 sequence (P12931 whole entry): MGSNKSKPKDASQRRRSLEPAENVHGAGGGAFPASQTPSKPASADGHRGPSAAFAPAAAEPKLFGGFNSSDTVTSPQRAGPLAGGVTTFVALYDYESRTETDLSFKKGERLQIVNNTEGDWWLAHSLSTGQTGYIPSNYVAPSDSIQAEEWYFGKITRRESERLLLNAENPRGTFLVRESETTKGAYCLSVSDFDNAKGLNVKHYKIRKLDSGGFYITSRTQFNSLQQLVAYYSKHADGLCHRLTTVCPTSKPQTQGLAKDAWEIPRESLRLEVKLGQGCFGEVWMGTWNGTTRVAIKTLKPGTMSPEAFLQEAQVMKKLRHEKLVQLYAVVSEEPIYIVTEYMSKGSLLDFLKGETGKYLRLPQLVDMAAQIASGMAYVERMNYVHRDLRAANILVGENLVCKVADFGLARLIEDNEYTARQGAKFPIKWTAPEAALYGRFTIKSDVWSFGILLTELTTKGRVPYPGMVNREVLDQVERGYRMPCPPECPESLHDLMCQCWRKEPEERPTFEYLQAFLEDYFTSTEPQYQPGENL

Q: With Cl.Cl.Cl.Cl.Nc1cc(N)c(N)cc1N [Y15, 1,2,4,5-benzenetetraamine tetrahydrochloride] as the compound, how does the “dose from which FAK autophosphorylation activity was directly blocked” value (FAK) read?
A: 1

Q: And the “Y397 phosphorylation in tumors” value (FAK-Y397 phosphorylation)?
A: lower levels of Y397 phosphorylation

Q: And the cell adhesion (pancreatic tumor cells; 50 μM)?
A: decreased adhesion in a similar fashion to 50 μM of TAE226

Q: And the “dose from which cell adhesion was significantly decreased” value (pancreatic tumor cells; collagen-coated plates)?
A: 10 µM

Q: And the “treatment time enough to completely block Y397-phosphorylation” value [1]?
A: 24 h

Q: And the “Y397 phosphorylation after 6 hours or less” value ([1]; 6 hours or less)?
A: did not significantly decrease Y397 phosphorylation

Q: And the “cell viability (trypan blue)” value [2]?
A: decreased cell viability indicative of necrosis

Q: And the cell adhesion (BT474 cells; 100 μM)?
A: significantly inhibited cell adhesion as TAE-226

Q: What about the “dose from which cell adhesion was significantly decreased” value (BT474 cells; collagen-coated plates) of the same compound?
A: 50 µM

Q: What about the “phosphorylation of c-Src” value (c-Src phosphorylation) of the same compound?
A: did not inhibit

Q: What about the kinase activity (EGFR) of the same compound?
A: did not significantly decrease kinase activity

Q: And the kinase activity (Met)?
A: did not significantly decrease kinase activity

Q: And the kinase activity (IGF-1)?
A: did not significantly decrease kinase activity

Q: And the kinase activity (c-RAF)?
A: did not significantly decrease kinase activity

Q: What about the kinase activity (PI3K (p110δ/p85α)) of the same compound?
A: did not significantly decrease kinase activity

Q: And the kinase activity (VEGFR-3)?
A: did not significantly decrease kinase activity

Q: And the kinase activity (c-Src)?
A: did not significantly decrease kinase activity

Q: What about the kinase activity (Pyk2) of the same compound?
A: did not significantly decrease kinase activity

Q: What about the kinase activity (PDGFR-α) of the same compound?
A: did not significantly decrease kinase activity

Q: What about the “inhibition of Y397 phosphorylation compared with TAE226” value ([3]; 100 μM) of the same compound?
A: same or better inhibition as TAE226

Q: And the “dose from which Y397 phosphorylation of FAK was inhibited” value [3]?
A: 0.1 µM

Q: And the “total FAK level” value ([3]; higher doses)?
A: down regulated

Q: And the cell viability [4]?
A: maximally decreased cell viability
